Laboratory results published in the NIST ThermoML archive (doi:10.1016/j.tca.2017.07.001).
Values joined by “and” are separate entries in the source; they are usually repeats but may differ in a detail not shown here. Identical values can stand only once.

Settings: Liquid, Transpiration method

CC(C)(C)[N+](=O)[O-] [2-methyl-2-nitropropane]
Settings | vapor or sublimation pressure [kPa]
299.3 K | 2.054
303.2 K | 2.553
304.2 K | 2.705
308.2 K | 3.261
309.2 K | 3.527
313.2 K | 4.205
314.2 K | 4.41
318.2 K | 5.269
323.2 K | 6.65
328.1 K | 8.479

CC(C)[N+](=O)[O-] [2-nitropropane]
Settings | vapor or sublimation pressure
274.7 K | 0.609 kPa
274.8 K | 0.604 kPa and 0.597 kPa
279.5 K | 0.799 kPa
279.6 K | 0.827 kPa
284.4 K | 1.092 kPa and 1.091 kPa
289.3 K | 1.459 kPa
294.2 K | 1.953 kPa
294.3 K | 1.9 kPa
299.2 K | 2.574 kPa
304.1 K | 3.344 kPa
304.2 K | 3.336 kPa
309.1 K | 4.299 kPa
314.1 K | 5.612 kPa and 5.563 kPa
